Results published in patent US20040024024A1, “Aromatic sulfone hydroxamates and their use as protease inhibitors” (priority 2001, published 2004).

Legend:
Human recombinant MMP-2 = target: T1, Human recombinant MMP-2 (Homo sapiens, UniProt P08253); assay: In vitro MMP inhibition, IC50 determination (fluorogenic substrate I); format: biochemical
T1 construct: made in house; host or cells: MMP-2-transfected p2AHT2 cells
T1 sequence (P08253 110-660): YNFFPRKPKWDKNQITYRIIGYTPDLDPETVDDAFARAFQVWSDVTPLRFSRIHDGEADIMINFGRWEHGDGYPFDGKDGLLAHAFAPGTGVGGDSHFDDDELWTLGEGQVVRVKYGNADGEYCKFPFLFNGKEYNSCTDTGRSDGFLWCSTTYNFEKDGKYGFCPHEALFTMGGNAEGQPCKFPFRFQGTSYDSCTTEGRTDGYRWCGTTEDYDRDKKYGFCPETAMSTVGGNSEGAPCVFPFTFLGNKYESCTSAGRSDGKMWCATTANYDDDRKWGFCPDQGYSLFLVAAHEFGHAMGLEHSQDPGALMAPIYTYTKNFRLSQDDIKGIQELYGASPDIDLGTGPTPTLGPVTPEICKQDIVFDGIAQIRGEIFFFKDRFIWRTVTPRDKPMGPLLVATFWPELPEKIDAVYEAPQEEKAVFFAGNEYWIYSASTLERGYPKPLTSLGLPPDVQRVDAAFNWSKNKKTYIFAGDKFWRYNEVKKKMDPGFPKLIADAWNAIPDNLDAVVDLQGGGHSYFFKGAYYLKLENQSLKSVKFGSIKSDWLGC
Procedure: (§1) Several hydroxamates and salts thereof were analyzed in in vitro assays to determine their ability to inhibit the MMP cleavage of peptide substrates. Inhibition (Ki) and IC50 constants were calculated from the assayed hydroxamate-MMP interactions.
(§2) Human recombinant MMP-1, MMP-2, MMP-9, MMP-13, and MMP-14 were used in this assay. All enzymes were prepared in Assignee's laboratories following usual laboratory procedures. Protocols for the preparation and use of these enzymes are available in the scientific literature. See, e.g., Enzyme Nomenclature (Academic Press, San Diego, Calif., 1992) (and the citations therein). See also, Frije et al., J. Biol. Chem., 26(24), 16766-73 (1994).
The MMP-2 proenzyme was purified by gelatin Sepharose chromatography from MMP-2-transfected p2AHT2 cells provided by Dr. Gregory Goldberg of Washington University (St. Louis, Mo.).
(§3) All MMPs were activated using 4-aminophenylmercuric acetate (“APMA”, Sigma Chemical, St. Louis, Mo.) or trypsin. MMP-9 also was activated using human recombinant MMP-3 (purified in Assignee's laboratory following standard cloning and purification techniques).
(§4) Two fluorogenic, methoxycoumarin-containing polypeptide substrates were used in the MMP inhibition assays:
(§5) MCA-ProLeuGlyLeuDpaAlaArgNH2 (I)
(§6) Here, “Dpa” is 3-(2,4-dinitrophenyl)-L-2,3-diaminopropionyl group, and “MCA” is 7-methoxycoumarin-4-yl acetyl. Substrate (I) was purchased from Baychem (Redwood City, Calif.), and substrate II was prepared Assignee's laboratory. Substrate I was used in the IC50 determination assays, while substrate II was used in the Ki determination assays. In the absence of MMP inhibitory activity, either substrate is cleaved at the Gly-Leu peptide bond. This cleavage separates the highly fluorogenic peptide from the 2,4-dinitrophenyl quencher, thus resulting in increase of fluorescent intensity.
(§7) The stock solutions of the assayed hydroxamates (or salts thereof) were prepared in 1% dimethyl sulfoxide (DMSO). These stock solutions were diluted in Buffer A (100 mM Tris-HCl, 100 mM NaCl, 10 mM CaCl2, 0.05% polyoxyethylene 23 lauryl ether, pH 7.5) to obtain solutions with different hydroxamate concentrations, i.e., assay solutions with different concentrations of the assayed MMP inhibitory compound. The experiment controls contained the same amount of Buffer A/DMSO as the assayed sample, but contained no hydroxamate (or salt thereof).
(§8) The assays from which the IC50 determinations were made were performed as follows. The MMPs were activated with either trypsin or APMA (4-aminophenylmercuric acetate, Sigma Chemical, St. Louis, Mo.). The assayed hydroxamate samples were, incubated in Microfluorrm White Plates (Dynatech, Chantilly, VA) and analyzed on a Perkin Elmer L550 plate reader (Norwalk, Conn.). The excitation wavelength was 328 nm, and the emission wavelength—415 nm. All samples (assayed hydroxamates and controls) were incubated in separate plates at room temperature in the presence of 4 μM of MMP substrate (I). As stated in the previous paragraph, samples containing varying concentrations of the same assayed hydroxamate were prepared. Inhibition was measured as a reduction in fluorescent intensity as a function of MMP inhibitor concentration.

Human recombinant MMP-13 = target: T2, Human recombinant MMP-13 (Homo sapiens, UniProt P45452); assay: as above; format: biochemical
T2 construct: made in house; host or cells: baculovirus / insect cells
Procedure: as §1, §2
The expressed proenzyme was first purified over a heparin agarose column, and then over a chelating zinc chloride column. The proenzyme was then activated by APMA for use in the assay. Further details on baculovirus expression systems may be found in, for example, Luckow et al., J. Virol., 67, 4566-79 (1993). See also, O'Reilly et al, Baculovirus Expression Vectors: A Laboratory Manual (W. H. Freeman and Co., New York, N.Y., 1992). See also, King et al., The Baculovirus Expression System: A Laboratory Guide (Chapman & Hall, London, England, 1992).
as §3, §4, §5, §6, §7, §8

[1] = value outside parentheses (Ki in parenthesis)

Row | SMILES | IC50 (Human recombinant MMP-2; value outside parenthesis) [nM] | IC50 (Human recombinant MMP-13; value outside parenthesis) [nM] | IC50 (Human recombinant MMP-2; [1]) [nM] | IC50 (Human recombinant MMP-13; [1]) [nM]
1 | COc1ccc(/C(C#N)=C/CCOc2ccc(S(=O)(=O)C3(C(=O)NO)CCOCC3)cc2)cc1 [Example 236] | 7.6 | 3.4 |  | 
2 | O=C(NO)C1(S(=O)(=O)c2ccc(OCCCc3nc(-c4ccc(C(F)(F)F)cc4)no3)cc2)CCOCC1 [Example 239] | 237 | 2.5 |  | 
3 | CC(=O)NC(C)(C)CCOc1ccc(S(=O)(=O)C2(C(=O)NO)CCOCC2)cc1 [Example 242] | 2720 | 203 |  | 
4 | CN(C)c1c(F)cc(-c2noc(CCCOc3ccc(S(=O)(=O)C4(C(=O)NO)CCOCC4)cc3)n2)cc1F [Example 251] | 182 | 5.4 |  | 
5 | COCCN1CCC(C(=O)NO)(S(=O)(=O)c2ccc(OCCCn3nc(C(F)(F)F)cc3C(F)(F)F)cc2)CC1 [Example 253] | 1450 | 32.4 |  | 
6 | O=C(CCCOc1ccc(S(=O)(=O)C2(C(=O)NO)CCN(C3CC3)CC2)cc1)C1CCC(O)(c2ccc(Cl)cc2)CC1 (centres unmarked) [Example 255] | 51.3 | 1.9 |  | 
7 | COc1ccc2cc(C(=O)CCCCOc3ccc(S(=O)(=O)C4(C(=O)NO)CCN(C5CC5)CC4)cc3)ccc2c1 [Example 265] | 40 | 0.2 |  | 
8 | O=C(NO)C1(S(=O)(=O)c2ccc(OCCCc3ccc(-c4ccccc4)cc3)cc2)CCOCC1 [Example 270] | 522 | 8.1 |  | 
9 | O=C(O)CCCOc1ccc(S(=O)(=O)C2(C(=O)NO)CCOCC2)cc1 [Example 273] | 1010 | 304 |  | 
10 | CCOc1ccc(-c2noc(CCCOc3ccc(S(=O)(=O)C4(C(=O)NO)CCOCC4)cc3)n2)cc1 [Example 275] | 115 | 1.7 |  | 
11 | O=C(NO)C1(S(=O)(=O)c2ccc(OCCCS(=O)(=O)N3CCC(Oc4ccc(C(F)(F)F)cc4)CC3)cc2)CCOCC1 [Example 279] | 15.9 | 9.4 |  | 
12 | Cc1cc(C)nc(SCCOc2ccc(S(=O)(=O)C3(C(=O)NO)CCOCC3)cc2)n1 [Example 283] | 186 | 29.3 |  | 
13 | COc1ccc(OC)c(-c2nnc(CCCOc3ccc(S(=O)(=O)C4(C(=O)NO)CCOCC4)cc3)o2)c1 [Example 291] |  |  | 100 | 8
14 | NS(=O)(=O)CCCOc1ccc(S(=O)(=O)C2(C(=O)NO)CCOCC2)cc1 [Example 296] |  |  | 1340 | 565
15 | CC(C)N(Cc1ccc(C(=O)CCCOc2ccc(S(=O)(=O)C3(C(=O)NO)CCOCC3)cc2)cc1)C(C)C [Example 298] |  |  | 11.9 | 18.1
16 | O=C(CCCOc1ccc(S(=O)(=O)C2(C(=O)NO)CCOCC2)cc1)c1ccc2ccccc2c1 [Example 299] |  |  | 3.2 | 0.1
17 | O=C(CCCOc1ccc(S(=O)(=O)C2(C(=O)NO)CCOCC2)cc1)c1ccccc1-c1ccccc1 [Example 300] |  |  | 12.5 | 6.7
18 | CCOc1ccc(-c2nnc(CCCOc3ccc(S(=O)(=O)C4(C(=O)NO)CCOCC4)cc3)o2)cc1OCC [Example 303] |  |  | 50 | 9.9
19 | O=C(NO)C1(S(=O)(=O)c2ccc(OCCCc3nnc(-c4ccc5ccccc5c4)o3)cc2)CCOCC1 [Example 304] |  |  | 139 | 0.2
20 | O=C(CCCOc1ccc(S(=O)(=O)C2(C(=O)NO)CCOCC2)cc1)Nc1cc2ccccc2cc1O [Example 312] |  |  | 9.1 | 0.2

Row | SMILES | IC50 (Human recombinant MMP-2; value outside parenthesis) [nM] | IC50 (Human recombinant MMP-13; value outside parenthesis) [nM] | IC50 (Human recombinant MMP-2; [1]) [nM] | IC50 (Human recombinant MMP-13; [1]) [nM]
21 | O=C(NO)C1(S(=O)(=O)c2ccc(OCCCc3nc4cc5ccccc5cc4o3)cc2)CCOCC1 [Example 313] |  |  | 18.1 | < 0.1
22 | COc1cc(SC)ccc1C(=O)NNC(=O)CCCOc1ccc(S(=O)(=O)C2(C(=O)NO)CCOCC2)cc1 [Example 314] |  |  | 7.8 | 2.5
23 | O=C(NO)C1(S(=O)(=O)c2ccc(OCCCS(=O)(=O)N3CCOCC3)cc2)CCOCC1 [Example 315] |  |  | 12.8 | 12.7
24 | COc1ccc(C(=O)[C@H](O)CCOc2ccc(S(=O)(=O)C3(C(=O)NO)CCOCC3)cc2)cc1 [Example 318] |  |  | 615 | 97.3
25 | O=C(NO)C1(S(=O)(=O)c2ccc(OCCCN(c3nc4ccccc4s3)c3nc4ccccc4s3)cc2)CCOCC1 [Example 320] |  |  | 5860 | 6110
26 | COc1ccc2cc(C(=O)CCCCOc3ccc(S(=O)(=O)C4(C(=O)NO)CCOCC4)cc3)ccc2c1 [Example 328] |  |  | 61.3 | < 0.1
27 | CON(C)C(=O)CCCCOc1ccc(S(=O)(=O)C2(C(=O)NO)CCOCC2)cc1 [Example 329] |  |  | 103 | 8.6
28 | COc1ccc(C(=O)NCCCCNc2ccc(S(=O)(=O)C3(C(=O)NO)CCOCC3)cc2)cc1 [Example 331] |  |  | 386 | 261
29 | COc1cc2c(cc1OC)C(c1ccccc1)NC(C(=O)OCCCCOc1ccc(S(=O)(=O)C3(C(=O)NO)CCOCC3)cc1)C2 (centres unmarked) [Example 336] |  |  | 301 | 19.8
30 | COc1cc2c(cc1OC)CN(CCCCOc1ccc(S(=O)(=O)C3(C(=O)NO)CCOCC3)cc1)C(C)C2 (centres unmarked) [Example 337] |  |  | 41.9 | 12.2
31 | COc1cc2c(cc1OC)CN(CCCCOc1ccc(S(=O)(=O)C3(C(=O)NO)CCOCC3)cc1)CC2 [Example 338] |  |  | 20.6 | 138
32 | COc1ccc(C(=O)NCCNc2ccc(S(=O)(=O)C3(C(=O)NO)CCOCC3)cc2)cc1 [Example 339] |  |  | 1210 | 933
33 | O=C1c2cc3ccccc3cc2C(=O)N1CCCOc1ccc(S(=O)(=O)C2(C(=O)NO)CCOCC2)cc1 [Example 343] |  |  | 7700 | 2.4
34 | CC(C)N(Cc1ccc(C(=O)CCCCOc2ccc(S(=O)(=O)C3(C(=O)NO)CCOCC3)cc2)cc1)C(C)C [Example 344] |  |  | 12.7 | 4.6
35 | COc1ccc(/C(C)=C/CCCOc2ccc(S(=O)(=O)C3(C(=O)NO)CCOCC3)cc2)c(OC)c1 [Example 345] |  |  | 271 | 14.3
36 | COc1ccc(C(C)(O)CCCCOc2ccc(S(=O)(=O)C3(C(=O)NO)CCOCC3)cc2)cc1 (centres unmarked) [Example 347] |  |  | 10.3 | 1.8
37 | COc1ccc(C(=CCCCOc2ccc(S(=O)(=O)C3(C(=O)NO)CCOCC3)cc2)c2ccc(OC)cc2)cc1 [Example 349] |  |  | 505 | 39
38 | COc1ccc(C(=O)NCCCNc2ccc(S(=O)(=O)C3(C(=O)NO)CCOCC3)cc2)cc1 [Example 358] |  |  | 768 | 14.6
39 | COc1ccc(C(=O)NCCCOc2ccc(S(=O)(=O)C3(C(=O)NO)CCOCC3)cc2)cc1OC [Example 362] |  |  | 347 | 3.7
40 | COc1ccccc1C(=O)NCCCOc1ccc(S(=O)(=O)C2(C(=O)NO)CCOCC2)cc1 [Example 363] |  |  | 430 | 7
